{
  "source": "patent US7029878B2",
  "about": "“Melanin concentrating hormone receptor chimeric and fusion proteins” (Merck & Co., Inc., priority 2000, dated 2006)",
  "key": {"[1]": {"biological_target": "T1, HuLong/mMCH1R-1-EGFP (human long form/mouse species chimeric MCH1R-1-EGFP) (Homo sapiens, UniProt Q99705, A336T/R230K/V159M)", "T1 construct": "ID; NO; 14 (human long form/mouse species chimeric MCH1R-linker-EGFP); 12 amino acid linker […]; expressed in transfected cells; host or cells: CHO (transient) and HEK293 Aequorin (transient)", "experiment": "cAMP production (FlashPlate), transiently transfected CHO cells stimulated with human MCH", "type": "cell-based", "conditions": "HuLong/mMCH1R-1-EGFP vs wild-type human MCH1R long form; transient CHO", "protocol": "Both HEK293 Aequorin (National Institutes of Health) and CHO mammalian cell lines were transiently transfected with the various MCH1R/GFP variant fusion constructs, as well as the appropriate control constructs. Transfection was performed using Lipofectamine 2000 (Gibco BRL) per the manufacturer recommended protocol. […] Aequorin bioluminescence is a representative measure of intracellular Ca^2+ mobilization. cAMP production was measured with the Adenylyl Cyclase Activation FlashPlate Assay (NEN Life Science Products, Inc.)."}, "[2]": {"system": "mMCH-1R-EGFP", "experiment": "cAMP flashplate assay of stable CHO cell clones", "type": "cell-based, mouse", "conditions": "human MCH, 15 minutes at 37° C., 10 μM forskolin; individual stable CHO clones; FIG. 2", "description": "FIG. 2 illustrates a cAMP flashplate assay of CHO cell clones stably expressing mMCH-1R-EGFP. […] Cells were then lysed and assayed for bound [^125I]cAMP.\n(§1) Wild-type CHO cells were transfected using SuperFect (Qiag.en) and either mouse MCH-1R-EGFP or human short/mouse species chimeric MCH-1R-EGFP. Forty-eight hours after transfection, transfected cells were subjected to positive selection for approximately ten days in media containing G418. Following selection, MCH-1R-EGFP expressing CHO cells were bulk sorted by Fluorescence Assisted Cell Sorting (FACS) for one or two rounds on the basis of fluorescence intensity to increase the population of cells expressing EGFP. Following bulk sorts, individual clones of varying fluorescence intensities were isolated by FACS and expanded.\nThe functional activity of these clones was evaluated with the cAMP Flashplate Assay (FIGS. 2 and 3)."}, "[3]": {"system": "mouse MCH-1R-EGFP", "experiment": "SPA-based Binding Assay, CHO cell membranes, [125I]Phe13Tyr19-MCH", "conditions": "displacement of [125I]Phe13Tyr19-MCH, stable CHO cell membranes", "description": "as §1\nFluorometric Microvolume Assay Technology (FMAT) was initially employed to screen a large number of stable clones by whole cell binding with a fluorescently labeled MCH derivative (SymJz-MCH, PE Biosystems) to identify those clones with good specific binding windows."}},
  "note": "“And” between values parts separate entries of the source, which are not always exact repeats. Equal values may be shown once.",
  "data": [
    {"substance": "human MCH", "values": [
      {"measurement": "EC50 fold higher than that of corresponding wild-type control", "setting": "[1]", "result": "approximately 7.5 fold"},
      {"measurement": "EC50", "setting": "[2]", "result": "0.111 nM and 0.126 nM and 0.129 nM and 0.23 nM"},
      {"measurement": "IC50 with MCH compared with wild-type human short isoform", "setting": "[3]", "result": "indistinguishable"}
    ]}
  ]
}
